Assays:
[1] = biological target: T1, human mGluR2 receptor (Homo sapiens, UniProt Q14416); experiment: [35S]GTPγS binding assay (GTPγS-PAM): positive allosteric modulation in presence of glutamate at EC25, membranes from transfected CHO cells; type: biochemical; settings: in presence of mGluR2 agonist glutamate at predetermined EC25 concentration, averages of duplicate values of 11-concentration response curves; for EC50: read-out: GTPgS - hR2 PAM pEC50 (converted)
T1 construct: expressed in transfected cells; host or cells: CHO cells (membrane preparation)
How it was run: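 Membranes came from butyrate-stimulated CHO cells expressing human mGluR2, used at 15 μg/well in HEPES pH 7.4 with 100 mM NaCl, 3 mM MgCl2, 50 μM GDP and saponin. Compound (0.3 nM-50 μM, 11 concentrations) plus glutamate at EC25 was preincubated 30 min at 30° C., then 0.1 nM [35S]GTPγS was added for 30 min. Filter-bound radioactivity was counted, nonspecific binding was taken with 10 μM GTP, and curves were fitted by four-parameter logistic.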

T1 sequence (Q14416 19-872): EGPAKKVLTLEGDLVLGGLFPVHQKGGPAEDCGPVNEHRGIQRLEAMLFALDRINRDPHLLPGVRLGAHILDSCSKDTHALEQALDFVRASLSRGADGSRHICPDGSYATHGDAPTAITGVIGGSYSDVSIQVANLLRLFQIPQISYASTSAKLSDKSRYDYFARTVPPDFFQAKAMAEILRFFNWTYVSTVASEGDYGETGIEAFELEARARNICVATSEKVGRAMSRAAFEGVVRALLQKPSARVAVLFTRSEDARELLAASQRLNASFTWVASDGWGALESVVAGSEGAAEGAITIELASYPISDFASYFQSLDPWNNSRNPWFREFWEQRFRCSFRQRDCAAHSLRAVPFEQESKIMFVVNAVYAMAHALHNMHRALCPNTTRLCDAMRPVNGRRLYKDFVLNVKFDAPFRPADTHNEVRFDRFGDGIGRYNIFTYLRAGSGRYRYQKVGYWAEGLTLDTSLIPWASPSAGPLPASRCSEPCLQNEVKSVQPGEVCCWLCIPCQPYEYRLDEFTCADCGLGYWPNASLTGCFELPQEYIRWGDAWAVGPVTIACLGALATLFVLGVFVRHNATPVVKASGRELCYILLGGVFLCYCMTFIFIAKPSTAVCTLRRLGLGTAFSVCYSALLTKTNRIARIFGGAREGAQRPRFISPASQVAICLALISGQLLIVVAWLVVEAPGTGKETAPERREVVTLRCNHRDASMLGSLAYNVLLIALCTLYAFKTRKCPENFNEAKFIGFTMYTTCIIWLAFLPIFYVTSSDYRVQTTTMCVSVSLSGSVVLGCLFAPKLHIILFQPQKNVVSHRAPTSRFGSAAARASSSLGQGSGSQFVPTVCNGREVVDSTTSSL

Row | EC50 [1] | melting point | GTPgS - hR2 PAM pEC50 [1] | Structure (SMILES)
1 | 316 nM | 173 °C | – | COc1ccc(CNc2ccc(-c3ccn(CCC(C)C)c(=O)c3C#N)cc2)cc1 [1-203]
2 | 3980 nM | 132 °C | – | CCCCn1ccc(N2CCC(c3ccnc(C)c3)CC2)c(C#N)c1=O [4-003]
3 | 2000 nM | 60 °C | – | COc1ccccc1-c1ccn(CC2CCCCC2)c(=O)c1C#N [1-011]
4 | 2510 nM | 97 °C | – | N#Cc1c(-c2ccc(CN3CCOCC3)cc2)ccn(Cc2ccc(OC(F)(F)F)cc2)c1=O [1-033]
5 | 100 nM | 154 °C | – | CCC(C)Oc1ccc(-c2ccn(CCC(C)C)c(=O)c2C#N)cc1F (stereo not drawn) [1-115]
6 | 398 nM | 107 °C | – | CCCOc1ccc(-c2ccn(CCC(C)C)c(=O)c2C#N)cc1 [1-105]
7 | 1260 nM | 123 °C | – | CCCCn1ccc(-c2ccc(OC(F)(F)F)cc2)c(C#N)c1=O [1-055]
8 | 1580 nM | 175 °C | – | N#Cc1c(N2CCC(N3Cc4ccc(F)cc4C3)CC2)ccn(Cc2ccc(F)cc2)c1=O [4-061]
9 | 126 nM | 78 °C | – | CC(C)CCn1ccc(N2CCC(n3ccc4cc(F)ccc43)CC2)c(C#N)c1=O [4-037]
10 | 158 nM | 165 °C | – | CC(C)CCn1ccc(-c2ccc(OCc3ccc(Cl)nc3)cc2)c(C#N)c1=O [1-164]
11 | 794 nM | 123 °C | – | CC(C)CCn1ccc(-c2cccc(Cl)c2)c(C#N)c1=O [1-090]
12 | 794 nM | 135 to 140 °C | – | CC(C)CCn1ccc(-c2ccc(C(=O)N(C)Cc3ccccc3)cc2)c(C#N)c1=O [1-245]
13 | 3160 nM | 239 °C | – | N#Cc1c(N2CCN(Cc3ccc(F)c(F)c3)CC2)ccn(Cc2ccc(F)cc2)c1=O [2-051]
14 | 2000 nM | 171 °C | – | CC(C)CCn1ccc(-c2ccc(N3CCOCC3)cc2)c(C#N)c1=O [1-223, 3-cyano-4-(4-(N-morpholyl)phenyl)-1-(3-methylbutyl)pyridine-2(1H)-one]
15 | 200 nM | 135 °C | – | CC(C)CCn1ccc(N2CCN(c3ncccc3C(F)(F)F)CC2)c(C#N)c1=O [2-026]
16 | 100 nM | 143 °C | – | CC1CCC(Cn2ccc(-c3ccc(OC(F)(F)F)cc3)c(C#N)c2=O)CC1 (stereo not drawn) [1-014]
17 | 3160 nM | 67 °C | – | COCc1cccc(-c2ccn(CCC(C)C)c(=O)c2C#N)c1 [1-107]
18 | 3160 nM | 130 °C | – | CC(=O)c1ccc(-c2ccn(CCC(C)C)c(=O)c2C#N)cc1 [1-238]
19 | 1260 nM | 213 °C | – | CC(C)CCn1ccc(-c2ccc(N3CCC(O)CC3)cc2)c(C#N)c1=O [1-220]
20 | 63.1 nM | 166 °C | – | CC(C)CCn1ccc(-c2ccc(OC(C)C)c(Cl)c2)c(C#N)c1=O [1-117]
21 | 126 nM | 137 °C | – | CC(C)CCn1ccc(-c2ccc(N(C)C)cc2)c(C#N)c1=O [1-172]
22 | 3160 nM | 253 °C | – | CC(C)CCn1ccc(N2CCC(N3CCc4ccccc4C3)CC2)c(C#N)c1=O [4-034]

Row | EC50 [1] | melting point | GTPgS - hR2 PAM pEC50 [1] | Structure (SMILES)
23 | 794 nM | 136 °C | – | C[C@@H]1CN(Cc2ccc(-c3ccn(Cc4ccc(OC(F)(F)F)cc4)c(=O)c3C#N)cc2)C[C@H](C)O1 [1-035]
24 | 25.1 nM | 232 °C | – | CC(C)CCn1ccc(-c2ccc3c(ccn3Cc3ccncc3)c2)c(C#N)c1=O [5-020]
25 | 251 nM | 155 °C | – | CC(C)CCn1ccc(N2CCN(c3nccc(C(F)(F)F)n3)CC2)c(C#N)c1=O [2-029]
26 | 126 nM | 118 °C | – | CC(C)CCn1ccc(-c2ccc(N3CCOCC3)c(Br)c2)c(C#N)c1=O [1-226]
27 | 398 nM | 217 °C | – | CC(C)CCn1ccc(N2CCC3Oc4ccccc4OC3C2)c(C#N)c1=O (stereo not drawn) [5-037]
28 | – | 96 °C | 5.5 | COc1cccc(-c2ccn(CCC(C)C)c(=O)c2C#N)c1 [1-101]
29 | 2510 nM | 167 °C | – | N#Cc1c(-c2ccc(CN3CCCCC3)cc2)ccn(Cc2ccc(OC(F)(F)F)cc2)c1=O [1-031]
30 | 2000 nM | 118 °C | – | N#Cc1c(-c2cccs2)ccn(CCCc2ccccc2)c1=O [1-052]
31 | 1580 nM | 156 °C | – | N#Cc1c(N2CCN(Cc3ccc(F)cc3)CC2)ccn(Cc2ccc(OC(F)(F)F)cc2)c1=O [2-044]
32 | 1000 nM | 169 °C | – | CC(C)CCn1ccc(OC2Cc3ccccc3C2)c(C#N)c1=O [1-288]
33 | 501 nM | 142 °C | – | CC(C)CCn1ccc(-c2ccc(OCc3cccnc3)cc2)c(C#N)c1=O [1-158]
34 | 50.1 nM | 171 °C | – | CC(C)CCn1ccc(-c2ccc(OCc3ccc(C#N)cc3)cc2)c(C#N)c1=O [1-153]
35 | 501 nM | 131 °C | – | CC(C)CCn1ccc(-c2cccc(-c3ccccc3)c2)c(C#N)c1=O [1-094]
36 | 501 nM | 138 °C | – | CC(C)CCn1ccc(N2CCC(Nc3ccccc3)C(C)C2)c(C#N)c1=O (stereo not drawn) [4-043]
37 | 25.1 nM | 172 °C | – | CC(C)CCn1ccc(-c2ccc(-c3ccccc3)cc2)c(C#N)c1=O [1-093]
38 | 2510 nM | 161 °C | – | CC(C)CCn1ccc(-c2cccc(F)c2)c(C#N)c1=O [1-088]
39 | 631 nM | 65 °C | – | COc1ccc(-c2ccn(CCC(C)C)c(=O)c2C#N)c(F)c1 [1-113, 3-cyano-4-(2-fluoro-4-methoxyphenyl)-1-(3-methylbutyl)pyridine-2(1H)-one]
40 | 100 nM | 166 °C | – | CC(C)CCn1ccc(C#Cc2ccc(N(C)C)cc2)c(C#N)c1=O [1-270]
41 | 1260 nM | 185 °C | – | N#Cc1c(-c2cccs2)ccn(Cc2ccc(C(F)(F)F)nc2)c1=O [1-046]
42 | 3160 nM | 188 °C | – | CCCCn1ccc(N2CCC(Oc3cccnc3)CC2)c(C#N)c1=O [4-004]
43 | 158 nM | 148 °C | – | CCOC(=O)c1ccc(-c2cccc(COc3ccn(CCC(C)C)c(=O)c3C#N)c2)cc1 [1-290]
44 | 79.4 nM | 294 °C | – | CC(C)CCn1ccc(-c2ccc(OCC3CC3)c(Cl)c2)c(C#N)c1=O [1-134]

Row | EC50 [1] | melting point | GTPgS - hR2 PAM pEC50 [1] | Structure (SMILES)
45 | 39.8 nM | 123 °C | – | CC(C)CCn1ccc(N2CCC(c3coc4cc(F)ccc34)CC2)c(C#N)c1=O [4-039]
46 | 501 nM | 132 °C | – | CC(C)CCn1ccc(-c2ccc(Oc3cccnc3)cc2)c(C#N)c1=O [1-155]
47 | 2000 nM | 123 °C | – | CC(C)CCn1ccc(-c2cccs2)c(C#N)c1=O [1-082]
48 | 50.1 nM | 209 °C | – | CC(C)CCn1ccc(-c2ccc(NCc3ccc(C#N)cc3)cc2)c(C#N)c1=O [1-206]
49 | 126 nM | 159 °C | – | CN(Cc1ccccc1)C1CCN(c2ccn(CCOc3ccccc3)c(=O)c2C#N)CC1 [4-064]
50 | 3160 nM | 183 °C | – | CCCCn1ccc(N2CCN(Cc3cc(F)cc(C(F)(F)F)c3)CC2)c(C#N)c1=O [2-001]
51 | 3980 nM | 170 °C | – | CC(C)Cn1ccc(-c2ccc(Oc3ccncc3)cc2)c(C#N)c1=O [1-078]
52 | 501 nM | 144 °C | – | Cc1nc(COc2ccc(-c3ccn(CCC(C)C)c(=O)c3C#N)cc2)cs1 [1-169]
53 | 1580 nM | 187 °C | – | N#Cc1c(NC2CCN(Cc3ccc(OC(F)(F)F)c(Cl)c3)CC2)ccn(CC2CC2)c1=O [3-010]
54 | 316 nM | 127 °C | – | CCCCn1ccc(N2CCN(Cc3ccc(OC(F)(F)F)c(Cl)c3)CC2)c(C#N)c1=O [2-002]
55 | 50.1 nM | 120 °C | – | CC(C)CCn1ccc(-c2ccc(OCc3cccc(Cl)c3)cc2)c(C#N)c1=O [1-149]
56 | 63.1 nM | 141 °C | – | CC(C)CCn1ccc(N2CCC(N(C)c3cccc(C(F)(F)F)c3)CC2)c(C#N)c1=O [4-031]
57 | 79.4 nM | 276 °C | – | CC(C)CCn1ccc(N2CCc3c([nH]c4ccccc34)C2)c(C#N)c1=O [5-039]
58 | 158 nM | 169 °C | – | COc1ccc(-c2ccn(Cc3ccc(OC(F)(F)F)cc3)c(=O)c2C#N)cc1 [1-039]
59 | 158 nM | 117 °C | – | CC(C)CCn1ccc(OCC2CCN(Cc3cccc(C(F)(F)F)c3)CC2)c(C#N)c1=O [3-009]
60 | 398 nM | 162 °C | – | CC(C)CCn1ccc(-c2ccc(OCc3ccccn3)cc2)c(C#N)c1=O [1-157]
61 | 63.1 nM | 136 °C | – | CC(C)CCn1ccc(-c2ccc(NCc3cccc(F)c3)cc2)c(C#N)c1=O [1-199]
62 | 2510 nM | 52 °C | – | COc1ccc(-c2ccn(CCC(C)C)c(=O)c2C#N)cc1OC [1-110, 4-(3,4-dimethoxyphenyl)-3-cyano-1-(3-methylbutyl)pyridine-2(1H)-one]
63 | 251 nM | 157 °C | – | N#Cc1c(N2CCC(N(Cc3cccc(F)c3)C3CC3)CC2)ccn(Cc2ccc(F)cc2)c1=O [4-059]
64 | 3980 nM | 108 °C | – | CC(C)Cn1ccc(-c2cccs2)c(C#N)c1=O [1-077]
65 | 1260 nM | 88 °C | – | COc1ccc(CCc2ccn(CCC(C)C)c(=O)c2C#N)cc1 [1-265]
66 | 3980 nM | 112 °C | – | CC(=O)N(C)Cc1ccc(-c2ccn(CCC(C)C)c(=O)c2C#N)cc1 [1-177]
